Test results as given in patent US11304929B2, “Tosylacetate based compounds and derivatives thereof as PHGDH inhibitors” (priority 2017, dated 2022).
pIC50: −log10 of the molar value.

Tests used:
MDA-MB-468 = assay: 13C3 Serine Assay MDA-MB-468 (13C3 serine levels by LC/MS/MS); type: cell-based; conditions: Homo sapiens; MDA-MB-468 cells, 13C3 serine levels by LC/MS/MS; read-out: IC50 (13CSERINE)
Method: Cells are cultivated in Medium I in a 75 mL flask.
Day 1: 5000 cells in 180 μL Medium I/well were seeded into a 96-well plate. Plates were incubated at 37° C. in a 5% CO2 incubator overnight.
Day 2: 10 mM DMSO stock from test compounds were serially pre-diluted with Medium I (See dilution scheme: for the first well 20 μL DMSO stock are diluted with 180 μL Medium I. From this 1000 μM solution further seven 1:3 (1+2) dilution are prepared with Medium I). 20 μL of these pre-dilutions are transferred in duplicates to the 96-well plate of Day 1. After incubation at 37° C. in a CO2 incubator for 1 hour the medium was removed, 100 μL PBS (tempered to room temperature) added and subsequently removed again.
180 μL Medium II were then added per well and 20 μL of serial dilutions of test compounds in Medium II (as described before) were transferred per well as above. After 180 minutes incubation at 37° C. in a CO2 incubator the medium was again cautiously removed.
After the addition of 100 μL methanol: H2O (80:20, v:v, pre-cooled to −80° C.) the plates were sealed immediately and frozen at −80° C.
At day of measurement plates were thawn, centrifuged and the supernatant evaporated. The samples were resuspended in 100 μl water for tandem mass spectrometry.
^13C3 serine levels were analyzed with LC/MS/MS using Multiple Reaction Monitoring (MRM).
IC50 values were computed from these values using a 4 parametric logistic model.

PHGDH = PHGDH (Homo sapiens (Human), UniProt O43175); assay: 3-Phosphoglycerate Dehydrogenase (PHGDH) Fluorescence Intensity Assay, run at two NAD/3-PG ratios: PHGDH_HIGH_NAD/3-PG (250 μM NAD/500 μM 3-PG) and PHGDH_500_NAD/3-PG (500 μM NAD/500 μM 3-PG); type: biochemical; conditions: 250 μM NAD/500 μM 3-PG; read-out: IC50 (PHGDH_HIGH_NAD/3-PG)
PHGDH, sequence (O43175 2-533 limits assumed): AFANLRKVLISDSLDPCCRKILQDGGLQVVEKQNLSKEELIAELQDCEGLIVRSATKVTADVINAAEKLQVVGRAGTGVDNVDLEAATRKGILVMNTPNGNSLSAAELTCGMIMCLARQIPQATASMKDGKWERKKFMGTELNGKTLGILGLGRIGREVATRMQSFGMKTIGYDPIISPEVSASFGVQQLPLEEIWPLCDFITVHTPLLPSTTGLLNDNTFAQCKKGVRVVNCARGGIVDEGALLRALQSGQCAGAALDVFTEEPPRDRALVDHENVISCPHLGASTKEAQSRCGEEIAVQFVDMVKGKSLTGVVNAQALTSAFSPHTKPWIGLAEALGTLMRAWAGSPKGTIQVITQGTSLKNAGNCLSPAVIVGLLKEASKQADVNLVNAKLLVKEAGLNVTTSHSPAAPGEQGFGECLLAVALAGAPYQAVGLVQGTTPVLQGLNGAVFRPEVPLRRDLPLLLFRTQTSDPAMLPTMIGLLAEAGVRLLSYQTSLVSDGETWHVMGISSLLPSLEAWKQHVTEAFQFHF

SMILES | pIC50 (MDA-MB-468) | pIC50 (PHGDH)
Cc1cc(Cl)c2cc(C(=O)N[C@H](C)c3ccc(S(=O)(=O)CC(=O)OCCOCCO)cc3)n(C)c2c1 [Example 09-005, 2-(2-hydroxyethoxy)ethyl 2-{4-[(1R)-1-[(4-chloro-1,6-dimethyl-1H-indol-2-yl)formamido]ethyl]benzenesulfonyl}acetate] | 6.86 | 6.71
Cc1cc(Cl)c2cc(C(=O)N[C@H](C)c3ccc(S(=O)(=O)CC(=O)OCCO)cc3)n(C)c2c1 [Example 09-007, 2-hydroxyethyl 2-{4-[(1R)-1-[(4-chloro-1,6-dimethyl-1H-indol-2-yl)formamido]ethyl]benzenesulfonyl}acetate] | 7.62 | 6.78
Cc1cc(Cl)c2cc(C(=O)N[C@H](C)c3ccc(S(=O)(=O)CC(=O)OCc4cccc(C(F)(F)F)c4)cc3)n(C)c2c1 [Example 09-011, [3-(trifluoromethyl)phenyl]methyl 2-{4-[(1R)-1-[(4-chloro-1,6-dimethyl-1H-indol-2-yl)formamido]ethyl]benzenesulfonyl}acetate] | 7.70 | 5.45
Cc1cc(Cl)c2cc(C(=O)N[C@H](C)c3ccc(S(=O)(=O)CC(=O)OCC4(C)COC4)cc3)n(C)c2c1 [Example 09-012, (3-methyloxetan-3-yl)methyl 2-{4-[(1R)-1-[(4-chloro-1,6-dimethyl-1H-indol-2-yl)formamido]ethyl]benzenesulfonyl}acetate] | 7.65 | 6.52
Cc1cc(Cl)c2cc(C(=O)N[C@H](C)c3ccc(S(=O)(=O)CC(=O)OCC(C)C)cc3)n(C)c2c1 [Example 09-013, 2-methylpropyl 2-{4-[(1R)-1-[(4-chloro-1,6-dimethyl-1H-indol-2-yl)formamido]ethyl]benzenesulfonyl}acetate] | 7.15 | 4.71
Cc1cc(Cl)c2cc(C(=O)N[C@H](C)c3ccc(S(=O)(=O)CC(=O)OC4CCOCC4)cc3)n(C)c2c1 [Example 09-014, oxan-4-yl 2-{4-[(1R)-1-[(4-chloro-1,6-dimethyl-1H-indol-2-yl)formamido]ethyl]benzenesulfonyl}acetate] | 7.83 | 5.98
Cc1cc(Cl)c2cc(C(=O)N[C@H](C)c3ccc(S(=O)(=O)CC(=O)OCCS(C)(=O)=O)cc3)n(C)c2c1 [Example 09-020, 2-methanesulfonylethyl 2-{4-[(1R)-1-[(4-chloro-1,6-dimethyl-1H-indol-2-yl)formamido]ethyl]benzenesulfonyl}acetate] | 7.43 | 7.27
CC(=O)OCOC(=O)CS(=O)(=O)c1ccc([C@@H](C)NC(=O)c2cc(-c3ccccc3)nn2C)cc1 [Example 10-003, (acetyloxy)methyl 2-{4-[(1R)-1-[(1-methyl-3-phenyl-1H-pyrazol-5-yl)formamido]ethyl]benzenesulfonyl}acetate] | 7.63 | 6.09
C[C@@H](NC(=O)c1cc(-c2ccc(F)cc2)nn1C)c1ccc(S(=O)(=O)CC(=O)OCC2(C)COC2)cc1 [Example 10-006, (3-methyloxetan-3-yl)methyl 2-{4-[(1R)-1-{[3-(4-fluorophenyl)-1-methyl-1H-pyrazol-5-yl]formamido}ethyl]benzenesulfonyl}acetate] | 6.99 | 6.03
Cc1cc(Cl)c2cc(C(=O)N[C@H](C)c3ccc(S(=O)(=O)CC(=O)NO)cc3)n(C)c2c1 [Example 14-020, 4-chloro-N-[(1R)-1-{4-[(hydroxycarbamoyl)methanesulfonyl]phenyl}ethyl]-1,6-dimethyl-1H-indole-2-carboxamide] | 6.87 | 6.76
